Laboratory results from PMC6005348, “Betahistine Treatment in a Cat Model of Vestibular Pathology: Pharmacokinetic and Pharmacodynamic Approaches” (Frontiers in Neurology, 2018).

Key:
[1] = test system: cochlear blood flow; design: method as in PMID 25014609; details: guinea pig model ref 29; cited from earlier work
[2] = Plasma pharmacokinetics of betahistine and 2-PAA after oral dosing in UVN cats (LC-MS/MS, non-compartmental analysis); format: in vivo, cat; details: days 1 and 21
Procedure: The experiments were performed on nine adult male UVN cats randomly allocated into three groups of cats. Three groups of three adult male cats received 0.2 mg/kg betahistine (N = 3: cats 1–3), 2 mg/kg betahistine (N = 3: cats 4–6), or 0.2 mg/kg betahistine plus 1 mg/kg selegiline (N = 3: cats 7–9). […] The samples were frozen at −80°C until analysis. Pharmacokinetic parameters of betahistine and its major metabolite 2-PAA were calculated by applying non-compartmental analysis.
Betahistine and its internal standard, betahistine-d3, were extracted by liquid/liquid extraction from plasma under alkaline conditions toward 1-butanol/isooctane, followed by a second liquid/liquid extraction step of acidic 1-butanol/isooctane toward water. Betahistine concentration in plasma was analyzed using a validated LC-MS/MS method. In brief, an API 4000 (Applied Biosystems) mass spectrometer coupled with a Symbiosis HPLC system (Sparks, Emmen, The Netherlands) was employed to analyze betahistine. Extracts (100 μl) were injected into a XTerra RP18 150 ^* 4.6 mm, 3.5 μm column (Waters, Etten-Leur, The Netherlands) and separated at 30°C under isocratic conditions using an aqueous metanol solution containing 0.5 mM ammonium formate as mobile phase. Betahistine was quantified by a tandem mass spectrometer in positive MRM. Parent daughter transition was followed for betahistine (m/z 137 > 94). Betahistine-d3 dihydrochloride was used as internal standard. Pharmacokinetic parameters of betahistine were calculated by applying non-compartmental analysis using the validated PK software WinNonLin, version 5.23 (Pharsight Corporation, Mountain View, CA, USA).
Cmax and tmax were derived directly from the plasma concentration-time curves. Linear trapezoidal rule was used to calculate AUC0-t during the part of the curve with increasing plasma concentrations. For the descending part of the curve, the log-linear trapezoidal rule was used. Calculation of the elimination half-life (t1/2) was evaluated as ln 2/kel, with kel as the slope of the terminal phase of the plasma concentration-time curve.

| Effect of selegiline co-administration on 2-PAA Cmax-values [2] | SMILES | Increase in cochlear blood flow [1] |
| --- | --- | --- |
| strongly reduced | O=C(O)Cc1ccccn1 [2-PAA, 2-pyridylacetic acid] | not |
|  | NCCc1ccccn1 [aminoethylpyridine] | observed |
|  | OCCc1ccccn1 [hydroxyethylpyridine] | observed |
